Experimental data from ChEMBL document CHEMBL4725365, “Modified tetra-oxygenated xanthones analogues as anti-MRSA and P. aeruginosa agent and their synergism with vancomycin” (2020).
≈ marks a conversion by molar mass, not a printed value. Calls of active or inactive are those of the source. The rule behind the calls is not given here.

How the values were obtained:
Staphylococcus aureus [1] = assay: Induction of morphological changes in methicillin-resistant Staphylococcus aureus ATCC 43300 assessed as cell deformation incubated for 24 hrs by scanning electron microscopic method; type: functional, organism-based
Staphylococcus aureus [2] = assay: Synergistic antibacterial activity against methicillin-resistant Staphylococcus aureus ATCC 43300 assessed as fractional inhibitory concentration index in presence of vancomycin; type: functional
Staphylococcus aureus [3] = assay: Antibacterial activity against methicillin-resistant Staphylococcus aureus ATCC 43300; type: functional
Staphylococcus aureus [4] = assay: Synergistic antibacterial activity against methicillin-resistant Staphylococcus aureus ATCC 43300 in presence of vancomycin; type: functional
Pseudomonas aeruginosa [5] = assay: Induction of morphological changes in Pseudomonas aeruginosa assessed as cell deformation incubated for 24 hrs by scanning electron microscopic method; type: functional, organism-based
Enterococcus faecalis [6] = assay: Antibacterial activity against Enterococcus faecalis TISTR 459; type: functional
Enterococcus faecalis [7] = assay: Antibacterial activity against vancomycin-resistant Enterococcus faecalis ATCC 51299; type: functional
Shigella sonnei = assay: Antibacterial activity against Shigella sonnei; type: functional
Pseudomonas aeruginosa [8] = assay: Synergistic antibacterial activity against Pseudomonas aeruginosa in presence of vancomycin; type: functional
Pseudomonas aeruginosa [9] = assay: Antibacterial activity against Pseudomonas aeruginosa; type: functional
Pseudomonas aeruginosa [10] = assay: Synergistic antibacterial activity against Pseudomonas aeruginosa assessed as fractional inhibitory concentration index in presence of vancomycin; type: functional
Bacillus subtilis = assay: Antibacterial activity against Bacillus subtilis; type: functional
Salmonella typhi = assay: Antibacterial activity against Salmonella typhi; type: functional, Salmonella enterica subsp. enterica serovar Typhi; conditions: Salmonella enterica
Pseudomonas aeruginosa [11] = assay: Induction of morphological changes in Pseudomonas aeruginosa assessed as cell deformation incubated for 24 hrs in presence of vancomycin by scanning electron microscopic method; type: functional, organism-based
Staphylococcus aureus [12] = assay: Induction of morphological changes in methicillin-resistant Staphylococcus aureus ATCC 43300 assessed as cell deformation at MIC incubated for 24 hrs in presence of vancomycin by scanning electron microscopic method; type: functional, organism-based

Structure (SMILES)	Activity (Staphylococcus aureus [1])	fractional inhibitory concentration index (FICI) (Staphylococcus aureus [2])	MIC (Staphylococcus aureus [3]) [µg/mL]	MIC (Staphylococcus aureus [4]) [µg/mL]	Activity (Pseudomonas aeruginosa [5])	MIC (Enterococcus faecalis [6]) [µg/mL]	MIC (Enterococcus faecalis [7]) [µg/mL]	MIC (Shigella sonnei) [µg/mL]	MIC (Pseudomonas aeruginosa [8]) [µg/mL]	MIC (Pseudomonas aeruginosa [9]) [µg/mL]	fractional inhibitory concentration index (FICI) (Pseudomonas aeruginosa [10])	MIC (Bacillus subtilis) [µg/mL]	MIC (Salmonella typhi) [µg/mL]	Activity (Pseudomonas aeruginosa [11])	Activity (Staphylococcus aureus [12])
COc1c(O)cc2oc3cc4c(c(O)c3c(=O)c2c1CC=C(C)C)CCC(C)(C)O4	Active	0.75	1.17 (≈ 2.85 µM)	1.75	Active	> 300	> 300	300 (≈ 731 µM)	2.63	2.34 (≈ 5.71 µM)	0.375	2.34 (≈ 5.7 µM)	300 (≈ 731 µM)		
COc1cc2oc3cc(OC)c(OC)c(CC=C(C)C)c3c(=O)c2c(O)c1CC=C(C)C			> 300			150 (≈ 342 µM)	300 (≈ 684 µM)	> 300		300 (≈ 684 µM)		75 (≈ 171 µM)	300 (≈ 684 µM)		
COc1c(O)cc2oc3cc(O)c(CC=C(C)C)c(O)c3c(=O)c2c1CC=C(C)C [MANGOSTIN]	Active	0.375	0.585 (≈ 1.43 µM)	0.877	Active	150 (≈ 365 µM)	150 (≈ 365 µM)	150 (≈ 365 µM)	0.439	0.292 (≈ 0.713 µM)	0.187	2.34 (≈ 5.7 µM)	18.8 (≈ 45.7 µM)		
COc1cc2oc3cc(O)c(OC)c(CC=C(C)C)c3c(=O)c2c(O)c1CC=C(C)C			4.68 (≈ 11 µM)			300 (≈ 707 µM)	300 (≈ 707 µM)	> 300		9.37 (≈ 22.1 µM)		2.34 (≈ 5.51 µM)	> 300		
COc1cc2oc3cc(O)c(CC=C(C)C)c(O)c3c(=O)c2c(CC=C(C)C)c1O			9.37 (≈ 22.8 µM)			75 (≈ 183 µM)		75 (≈ 183 µM)		4.67 (≈ 11.4 µM)		75 (≈ 183 µM)	37.5 (≈ 91.4 µM)		
CC(C)=CCc1c(O)cc2oc3cc(O)c(O)c(CC=C(C)C)c3c(=O)c2c1O			4.68 (≈ 11.8 µM)			9.37 (≈ 23.6 µM)		18.8 (≈ 47.3 µM)		18.8 (≈ 47.3 µM)		18.8 (≈ 47.3 µM)	18.8 (≈ 47.3 µM)		
COc1cc2oc3cc(O)c(CC=C(C)C)c(O)c3c(=O)c2c(CC=C(C)C)c1OC			18.8 (≈ 44.2 µM)			75 (≈ 177 µM)		150 (≈ 353 µM)		18.8 (≈ 44.2 µM)		75 (≈ 177 µM)	150 (≈ 353 µM)		
O=c1c2cc(O)c(O)cc2oc2cc(O)cc(O)c12			18.8 (≈ 72.1 µM)			300 (≈ 1150 µM)	> 300	> 300		37.5 (≈ 144 µM)		37.5 (≈ 144 µM)	> 300		
COc1cc2oc3cc(O)c(OC)c(CC=C(C)C)c3c(=O)c2c2c1CCC(C)(C)O2			> 300			75 (≈ 177 µM)	150 (≈ 353 µM)	300 (≈ 707 µM)		300 (≈ 707 µM)		75 (≈ 177 µM)	300 (≈ 707 µM)		
COc1c(OS(=O)(=O)c2ccc(Br)cc2)cc2oc3cc(OS(=O)(=O)c4ccc(Br)cc4)c(CC=C(C)C)c(O)c3c(=O)c2c1CC=C(C)C			> 300			> 300		> 300		300 (≈ 354 µM)		> 300	> 300		
COc1c(O)cc2oc3cc4c(c(O)c3c(=O)c2c1CCC(C)(C)OC)CCC(C)(C)O4			9.37 (≈ 21.2 µM)			> 300	> 300	300 (≈ 678 µM)		75 (≈ 169 µM)		9.37 (≈ 21.2 µM)	300 (≈ 678 µM)		
COc1c(OCC=C(C)C)cc2oc3cc(OCC=C(C)C)c(CC=C(C)C)c(O)c3c(=O)c2c1CC=C(C)C			> 300			300 (≈ 549 µM)		> 300		300 (≈ 549 µM)		> 300	> 300		
COc1cc2oc3cc(O)c(OC)c(CCC(C)(C)OC(C)=O)c3c(=O)c2c2c1CCC(C)(C)O2			> 300			> 300	> 300	300 (≈ 619 µM)		300 (≈ 619 µM)		300 (≈ 619 µM)	300 (≈ 619 µM)		
COc1cc2oc3cc(O)c(O)c(CC=C(C)C)c3c(=O)c2c(O)c1CC=C(C)C			9.37 (≈ 22.8 µM)			300 (≈ 731 µM)	300 (≈ 731 µM)	150 (≈ 365 µM)		18.8 (≈ 45.7 µM)		18.8 (≈ 45.7 µM)	150 (≈ 365 µM)		
CN[C@H](CC(C)C)C(=O)N[C@H]1C(=O)N[C@@H](CC(N)=O)C(=O)N[C@H]2C(=O)N[C@H]3C(=O)N[C@H](C(=O)N[C@H](C(=O)O)c4cc(O)cc(O)c4-c4cc3ccc4O)[C@H](O)c3ccc(c(Cl)c3)Oc3cc2cc(c3O[C@@H]2O[C@H](CO)[C@@H](O)[C@H](O)[C@H]2O[C@H]2C[C@](C)(N)[C@H](O)[C@H](C)O2)Oc2ccc(cc2Cl)[C@H]1O [VANCOMYCIN]			2.34 (≈ 1.61 µM)			2.34 (≈ 1.61 µM)	2.34 (≈ 1.61 µM)	2.34 (≈ 1.61 µM)		2.34 (≈ 1.61 µM)		2.34 (≈ 1.61 µM)	2.34 (≈ 1.61 µM)		
COc1c(O)cc2oc3cc4c(c(O)c3c(=O)c2c1CCC(C)(C)O)CCC(C)(C)O4	Active	0.375	18.8 (≈ 43.8 µM)	4.98	Active	> 300	> 300	300 (≈ 700 µM)	9.52	75 (≈ 175 µM)	0.187	18.8 (≈ 43.8 µM)	150 (≈ 350 µM)	Active	Active
COc1cc2oc3cc(O)c(OC)c(CCC(C)C)c3c(=O)c2c(O)c1CCC(C)C			37.5 (≈ 87.5 µM)			75 (≈ 175 µM)		150 (≈ 350 µM)		150 (≈ 350 µM)		150 (≈ 350 µM)	150 (≈ 350 µM)		
COc1c(O)cc2oc3cc(O)c4c(c3c(=O)c2c1CCC(C)(C)O)OC(C)(C)CC4			37.5 (≈ 87.5 µM)			> 300	> 300	300 (≈ 700 µM)		300 (≈ 700 µM)		37.5 (≈ 87.5 µM)	300 (≈ 700 µM)		
COc1cc2oc3cc(O)c(OC)c(CCC(C)(C)O)c3c(=O)c2c2c1CCC(C)(C)O2			150 (≈ 339 µM)			> 300	> 300	300 (≈ 678 µM)		300 (≈ 678 µM)		150 (≈ 339 µM)	300 (≈ 678 µM)		
COc1cc2oc3cc(O)c(OC)c(CCC(C)(C)O)c3c(=O)c2c(O)c1CC=C(C)C			18.8 (≈ 42.4 µM)			150 (≈ 339 µM)	> 300	300 (≈ 678 µM)		18.8 (≈ 42.4 µM)		9.37 (≈ 21.2 µM)	300 (≈ 678 µM)		
